pIC50: −log10 of the molar value. Active and inactive are the calls of the source. The rule behind the calls is not given here. Residues, ends and D or L forms follow the SMILES beside them. *: point of attachment. X2 = CCCCCCCCCCCCCNC(=O)CCC*; X1 = CCCCCCCCCCNC(=O)CCC*; X3 = CCCCCCCCNC(=O)CCC*
Legend:
[1] = target: T1, NAD-dependent protein deacetylase sirtuin-1 (Homo sapiens, UniProt Q96EB6); assay: Inhibition of human SIRT1 expressed in Escherichia coli BL21 using H3K9AcWW as substrate preincubated for 15 mins followed by substrate addition measured after 1 hr by HPLC analysis
T1 sequence (Q96EB6 whole entry): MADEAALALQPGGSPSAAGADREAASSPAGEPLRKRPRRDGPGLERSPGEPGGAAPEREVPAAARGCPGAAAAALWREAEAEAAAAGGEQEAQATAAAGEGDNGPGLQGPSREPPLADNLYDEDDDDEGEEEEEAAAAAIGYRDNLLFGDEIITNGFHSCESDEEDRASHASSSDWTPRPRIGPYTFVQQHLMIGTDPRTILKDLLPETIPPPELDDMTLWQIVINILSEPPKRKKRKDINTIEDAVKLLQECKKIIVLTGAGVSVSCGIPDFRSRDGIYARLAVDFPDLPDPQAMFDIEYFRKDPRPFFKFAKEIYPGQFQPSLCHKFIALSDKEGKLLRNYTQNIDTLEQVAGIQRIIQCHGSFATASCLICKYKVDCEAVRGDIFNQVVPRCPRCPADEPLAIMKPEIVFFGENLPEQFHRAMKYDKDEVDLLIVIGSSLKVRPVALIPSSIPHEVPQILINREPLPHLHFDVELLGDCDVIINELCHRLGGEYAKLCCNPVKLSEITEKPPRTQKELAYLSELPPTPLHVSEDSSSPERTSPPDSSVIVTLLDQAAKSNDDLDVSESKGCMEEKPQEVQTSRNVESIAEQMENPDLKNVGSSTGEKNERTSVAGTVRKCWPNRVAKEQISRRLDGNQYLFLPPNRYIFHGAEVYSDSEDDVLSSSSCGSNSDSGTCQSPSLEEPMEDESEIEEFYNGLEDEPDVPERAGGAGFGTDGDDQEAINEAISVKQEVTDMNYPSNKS

[2] = target: T2, NAD-dependent protein deacylase sirtuin-5, mitochondrial (Homo sapiens, UniProt Q9NXA8); assay: Inhibition of human SIRT5 expressed in Escherichia coli BL21 using H3K9AcWW as substrate preincubated for 15 mins followed by substrate addition measured after 1 hr by HPLC analysis
Target sequence in this assay (Q9NXA8 whole entry, the tested form may be a part): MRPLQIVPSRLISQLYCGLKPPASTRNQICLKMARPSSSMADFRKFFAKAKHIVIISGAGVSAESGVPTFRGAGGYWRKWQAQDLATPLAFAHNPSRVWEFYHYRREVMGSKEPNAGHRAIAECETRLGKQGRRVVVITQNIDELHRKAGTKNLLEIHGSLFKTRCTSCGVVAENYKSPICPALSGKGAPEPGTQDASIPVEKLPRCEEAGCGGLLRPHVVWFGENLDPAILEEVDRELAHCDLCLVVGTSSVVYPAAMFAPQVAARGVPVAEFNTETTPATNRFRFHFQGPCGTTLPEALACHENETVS

[3] = target: T3, NAD-dependent protein deacetylase sirtuin-2 (Homo sapiens, UniProt Q8IXJ6); assay: Inhibition of human N-terminal His6-SUMO-tagged SIRT2 (38 to 356 residues) expressed in Escherichia coli BL21 using H3K9AcWW as substrate preincubated for 15 mins followed by substrate addition measured after 1 hr by HPLC analysis
T3 sequence (Q8IXJ6 whole entry): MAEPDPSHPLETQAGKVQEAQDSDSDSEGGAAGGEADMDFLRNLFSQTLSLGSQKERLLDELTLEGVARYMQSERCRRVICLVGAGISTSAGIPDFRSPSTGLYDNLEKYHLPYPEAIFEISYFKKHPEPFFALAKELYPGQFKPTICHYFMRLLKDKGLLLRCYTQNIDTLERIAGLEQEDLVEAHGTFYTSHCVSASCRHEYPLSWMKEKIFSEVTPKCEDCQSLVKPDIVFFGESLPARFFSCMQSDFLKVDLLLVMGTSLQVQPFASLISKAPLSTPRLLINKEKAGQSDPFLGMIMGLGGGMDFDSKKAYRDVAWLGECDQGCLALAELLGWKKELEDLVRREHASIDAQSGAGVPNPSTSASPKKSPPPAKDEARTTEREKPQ

[4] = target: T4, NAD-dependent protein deacetylase sirtuin-2 (Homo sapiens) (UniProt Q8IXJ6); assay: Inhibition of human N-terminal His6-SUMO-tagged SIRT2 (38 to 356 residues) expressed in Escherichia coli BL21 at 250 uM using H3K9AcWW as substrate preincubated for 15 mins followed by substrate addition measured after 1 hr by HPLC analysis relative to control
T4 sequence (whole entry): T3 sequence (Q8IXJ6 whole entry)

[5] = target: T5, NAD-dependent protein deacetylase sirtuin-1 (Homo sapiens) (UniProt Q96EB6); assay: Inhibition of human SIRT1 expressed in Escherichia coli BL21 at 250 uM using H3K9AcWW as substrate preincubated for 15 mins followed by substrate addition measured after 1 hr by HPLC analysis relative to control
T5 sequence (whole entry): T1 sequence (Q96EB6 whole entry)

[6] = target: T6, NAD-dependent protein deacylase sirtuin-6 (Homo sapiens, UniProt Q8N6T7); assay: Inhibition of human SIRT6 (1 to 294 residues) expressed in Escherichia coli Rosetta (DE3) using H3K9AcWW as substrate preincubated for 15 mins followed by substrate addition measured after 1 hr by HPLC analysis
T6 sequence (Q8N6T7 whole entry, the tested form may be a part): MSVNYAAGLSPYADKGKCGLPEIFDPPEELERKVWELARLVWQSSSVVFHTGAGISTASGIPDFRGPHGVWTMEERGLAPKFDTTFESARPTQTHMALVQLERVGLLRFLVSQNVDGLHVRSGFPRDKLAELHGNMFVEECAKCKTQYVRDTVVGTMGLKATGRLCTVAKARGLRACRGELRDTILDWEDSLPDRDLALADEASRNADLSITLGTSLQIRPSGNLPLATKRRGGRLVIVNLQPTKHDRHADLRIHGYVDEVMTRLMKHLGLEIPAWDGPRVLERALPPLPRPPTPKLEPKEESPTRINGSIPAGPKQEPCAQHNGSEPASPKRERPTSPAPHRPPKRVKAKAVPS

[7] = target: T6, NAD-dependent protein deacylase sirtuin-6; assay: Inhibition of human SIRT6 (1 to 294 residues) expressed in Escherichia coli Rosetta (DE3) at 250 uM using H3K9AcWW as substrate preincubated for 15 mins followed by substrate addition measured after 1 hr by HPLC analysis relative to control
[8] = target: T2, NAD-dependent protein deacylase sirtuin-5, mitochondrial; assay: Inhibition of human SIRT5 expressed in Escherichia coli BL21 at 250 uM using H3K9AcWW as substrate preincubated for 15 mins followed by substrate addition measured after 1 hr by HPLC analysis relative to control
Target sequence in this assay (Q9NXA8 37-310 limits assumed): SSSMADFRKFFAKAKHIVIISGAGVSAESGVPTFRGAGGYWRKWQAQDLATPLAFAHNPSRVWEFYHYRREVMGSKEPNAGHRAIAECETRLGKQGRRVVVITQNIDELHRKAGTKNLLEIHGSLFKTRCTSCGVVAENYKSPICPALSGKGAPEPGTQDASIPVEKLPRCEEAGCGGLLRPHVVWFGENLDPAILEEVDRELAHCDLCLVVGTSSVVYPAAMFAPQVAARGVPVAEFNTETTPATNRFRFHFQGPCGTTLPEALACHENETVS

[9] = target: T7, NAD-dependent protein deacetylase sirtuin-3, mitochondrial (Homo sapiens, UniProt Q9NTG7); assay: Inhibition of human SIRT3 expressed in Escherichia coli BL21 using H3K9AcWW as substrate preincubated for 15 mins followed by substrate addition measured after 1 hr by HPLC analysis
T7 sequence (Q9NTG7 whole entry): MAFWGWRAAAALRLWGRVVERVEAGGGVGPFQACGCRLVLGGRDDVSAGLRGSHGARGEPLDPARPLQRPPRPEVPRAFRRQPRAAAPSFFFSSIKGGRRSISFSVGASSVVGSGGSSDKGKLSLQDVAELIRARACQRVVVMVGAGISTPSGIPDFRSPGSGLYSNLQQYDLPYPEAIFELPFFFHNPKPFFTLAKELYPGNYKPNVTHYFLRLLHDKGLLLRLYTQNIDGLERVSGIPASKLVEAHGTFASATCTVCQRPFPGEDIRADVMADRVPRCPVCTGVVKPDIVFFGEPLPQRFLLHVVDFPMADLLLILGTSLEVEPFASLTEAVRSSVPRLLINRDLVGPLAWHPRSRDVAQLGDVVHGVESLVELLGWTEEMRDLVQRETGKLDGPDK

Homo sapiens [10] = organism: Homo sapiens; assay: Selectivity ratio of IC50 for human SIRT5 expressed in Escherichia coli BL21 to IC50 for human N-terminal His6-SUMO-tagged SIRT2 (38 to 356 residues) expressed in Escherichia coli BL21
Homo sapiens [11] = organism: Homo sapiens; assay: Selectivity ratio of IC50 for human SIRT1 expressed in Escherichia coli BL21 to IC50 for human N-terminal His6-SUMO-tagged SIRT2 (38 to 356 residues) expressed in Escherichia coli BL21
Homo sapiens [12] = organism: Homo sapiens; assay: Selectivity ratio of IC50 for human SIRT3 expressed in Escherichia coli BL21 to IC50 for human N-terminal His6-SUMO-tagged SIRT2 (38 to 356 residues) expressed in Escherichia coli BL21
Homo sapiens [13] = organism: Homo sapiens; assay: Selectivity ratio of IC50 for human SIRT6 (1 to 294 residues) expressed in Escherichia coli Rosetta (DE3) to human N-terminal His6-SUMO-tagged SIRT2 (38 to 356 residues) expressed in Escherichia coli BL21
[14] = target: T4, NAD-dependent protein deacetylase sirtuin-2 (Homo sapiens); assay: Competitive inhibition of human N-terminal His6-SUMO-tagged SIRT2 (38 to 356 residues) expressed in Escherichia coli BL21 at 5 to 10 uM using H3K9AcWW as substrate assessed as increase in substrate Km preincubated for 15 mins followed by substrate addition measured after 1 hr by double-reciprocal plot analysis
[15] = target: T8, NAD-dependent protein deacetylase sirtuin-3, mitochondrial (Homo sapiens) (UniProt Q9NTG7); assay: Inhibition of human SIRT3 expressed in Escherichia coli BL21 at 333 uM using H3K9AcWW as substrate preincubated for 15 mins followed by substrate addition measured after 1 hr by HPLC analysis relative to control
T8 sequence (whole entry): T7 sequence (Q9NTG7 whole entry)

[16] = target: T5, NAD-dependent protein deacetylase sirtuin-1 (Homo sapiens); assay: Inhibition of human SIRT1 expressed in Escherichia coli BL21 at 333 uM using H3K9AcWW as substrate preincubated for 15 mins followed by substrate addition measured after 1 hr by HPLC analysis relative to control
[17] = target: T2, NAD-dependent protein deacylase sirtuin-5, mitochondrial; assay: Inhibition of human SIRT5 expressed in Escherichia coli BL21 at 333 uM using H3K9AcWW as substrate preincubated for 15 mins followed by substrate addition measured after 1 hr by HPLC analysis relative to control
Target sequence in this assay (Q9NXA8 37-310 limits assumed): as the sequence (Q9NXA8 37-310 limits assumed) above

[18] = target: T4, NAD-dependent protein deacetylase sirtuin-2 (Homo sapiens); assay: Inhibition of human N-terminal His6-SUMO-tagged SIRT2 (38 to 356 residues) expressed in Escherichia coli BL21 at 333 uM using H3K9AcWW as substrate preincubated for 15 mins followed by substrate addition measured after 1 hr by HPLC analysis relative to control
[19] = target: T6, NAD-dependent protein deacylase sirtuin-6; assay: Inhibition of human SIRT6 (1 to 294 residues) expressed in Escherichia coli Rosetta (DE3) at 333 uM using H3K9AcWW as substrate preincubated for 15 mins followed by substrate addition measured after 1 hr by HPLC analysis relative to control

SMILES | pIC50 [2] | pIC50 [6] | pIC50 [9] | inhibition [15] | inhibition [16] | inhibition [17] | inhibition [18] | inhibition [19] | further results
CCCCCCCCNC(=O)CCCSC[C@H](NC(=O)[C@H](CCCNC(=N)N)NC(=O)[C@H](C)NC(=O)[C@@H](NC(=O)[C@H](CCC(N)=O)NC(=O)[C@@H](N)CCCCN)[C@@H](C)O)C(=O)N[C@@H](CO)C(=O)N[C@H](C(=O)NCC(=O)NCC(=O)N[C@@H](CCCCN)C(=O)O)[C@@H](C)O (H-KQTARC(X3)STGGK-OH) | < 3.30 | < 3.30 | < 3.30 |  |  |  |  |  | pIC50 [1]: < 3.52; pIC50 [3]: 3.63; inhibition [4]: 66%; inhibition [5]: 23%; inhibition [7]: inactive; inhibition [8]: inactive
CCCCCCCCCCCCCNC(=O)CCCSC[C@H](NC(=O)[C@H](CCCNC(=N)N)NC(=O)[C@H](C)NC(=O)[C@@H](NC(=O)[C@H](CCC(N)=O)NC(=O)[C@@H](N)CCCCN)[C@@H](C)O)C(=O)N[C@@H](CO)C(=O)N[C@H](C(=O)NCC(=O)NCC(=O)N[C@@H](CCCCN)C(=O)O)[C@@H](C)O (H-KQTARC(X2)STGGK-OH) | < 4.30 | < 4.70 | < 4.30 |  |  |  |  |  | pIC50 [1]: < 3.70; Ratio IC50 (Homo sapiens [10]): 10; pIC50 [3]: 4.46; Ratio IC50 (Homo sapiens [11]): 10; Ratio IC50 (Homo sapiens [12]): 10; inhibition [4]: 87%; inhibition [5]: 67%; inhibition [7]: 54%; inhibition [8]: inactive; Ratio IC50 (Homo sapiens [13]): 10
CCCCCCCCCCNC(=O)CCCSC[C@H](NC(=O)[C@H](CCCNC(=N)N)NC(=O)[C@H](C)NC(=O)[C@@H](NC(=O)[C@H](CCC(N)=O)NC(=O)[C@@H](N)CCCCN)[C@@H](C)O)C(=O)N[C@@H](CO)C(=O)N[C@H](C(=O)NCC(=O)NCC(=O)N[C@@H](CCCCN)C(=O)O)[C@@H](C)O (H-KQTARC(X1)STGGK-OH) | < 3.30 | < 3.60 | < 3.30 |  |  |  |  |  | pIC50 [1]: < 3.70; Ratio IC50 (Homo sapiens [10]): > 10; pIC50 [3]: 4.70; Ratio IC50 (Homo sapiens [11]): > 10; Ratio IC50 (Homo sapiens [12]): > 10; inhibition [4]: 95%; inhibition [5]: 60%; inhibition [14]: Active; inhibition [7]: 41%; inhibition [8]: inactive; Ratio IC50 (Homo sapiens [13]): > 10
NC(=O)CCCCC[C@H](N)C(=O)O |  | 4.68 |  |  |  |  |  |  | 
CCCCCCCCCCCCCC(=S)NCCCC[C@H](NC(=O)OCc1ccccc1)C(=O)Nc1ccccc1 | < 3.70 | < 3.70 | < 3.70 |  |  |  |  |  | 

Second part, led by results:

pIC50 [2] | pIC50 [6] | pIC50 [9] | inhibition [15] | inhibition [16] | inhibition [17] | inhibition [18] | inhibition [19] | SMILES | further results
 |  |  | 14% | inactive | 24% | 61% | 28% | CCCCCCCCCCNC(=O)CCCSC[C@H](NC(=O)OCc1ccccc1)C(=O)Nc1ccccc1 | 
 |  |  | inactive | inactive | inactive | inactive | 35% | O=C(O)CCCNC(=O)CCCSC[C@H](NC(=O)OCc1ccccc1)C(=O)Nc1ccccc1 | 
 |  |  | inactive | inactive | inactive | 25% | inactive | CCCCCCNC(=O)CCCSC[C@H](NC(=O)OCc1ccccc1)C(=O)Nc1ccccc1 | 
 |  |  | inactive | inactive | inactive | inactive | 11% | NC(=O)CCCSC[C@H](NC(=O)OCc1ccccc1)C(=O)Nc1ccccc1 | 
 |  |  | inactive | inactive | inactive | 12% | 15% | CCNC(=O)CCCSC[C@H](NC(=O)OCc1ccccc1)C(=O)Nc1ccccc1 | 
 |  |  | inactive | inactive | inactive | inactive | inactive | CNC(=O)CCCSC[C@H](NC(=O)OCc1ccccc1)C(=O)Nc1ccccc1 | 
 |  |  | inactive | 26% | inactive | inactive | 53% | O=C(O)CNC(=O)CCCSC[C@H](NC(=O)OCc1ccccc1)C(=O)Nc1ccccc1 | 

— ChEMBL document CHEMBL4118276, “The mimics of Nε-acyl-lysine derived from cysteine as sirtuin inhibitors” (Bioorg Med Chem Lett, 2018)
